Measured values reported in publication PMC10244169, “Psychedelics promote plasticity by directly binding to BDNF receptor TrkB” (Nature Neuroscience, 2023).

Legend:
GFP-tagged TrkA.TM = assay: Microscale thermophoresis (MST) in HEK293T lysates; assay type: binding
Experimental: (§1) MST experiments were performed using the Monolith NT.115 (Blue/Red) instrument (NanoTemper Technologies). Lysates of HEK293T cells expressing GFP-tagged TrkB (WT, Y433F, TrkA.TM) were lysed, vortexed, sonicated and centrifuged 24 h after transient transfection and used as a source of fluorescently labeled TrkB, similarly to previously described protocols[11],[45]–[47]. The advantage of this approach is the possibility of studying the proteins in close-to-native conditions. However, the presence of other proteins, lipids, nucleic acids and other components of crude cell lysates can alter the diffusion of biomolecules and therefore binding affinities. High viscosity and background signal typically results in the affinity values being orders of magnitude […] than those of more traditional binding assays. […] The measurements were performed in premium coated capillaries (NanoTemper Technologies, MO-K025) using a LED source with 470 nm and 50% infrared-laser power at 25 °C. Analysis was performed using MO Affinity Analysis 2.3. Results were fitted to specific binding with Hill slope equations from GraphPad Prism 9.2.

GFP-tagged TrkB Y433F = target: T1, GFP-tagged TrkB Y433F (Rattus norvegicus, UniProt Q63604, Y433F); assay: Microscale thermophoresis (MST) in HEK293T lysates; assay type: binding; conditions: for Bmax (best-fit, 1c/1d) / h (best-fit, 1c/1d): MST Y433F; for binding by MST: Y433F
T1 construct: expressed in transfected cells; host or cells: HEK293T
Experimental: as §1

eGFP-tagged TrkB (WT) = target: T2, eGFP-tagged TrkB (WT) (Rattus norvegicus, UniProt Q63604); assay: Microscale thermophoresis (MST) in HEK293T lysates; assay type: binding; conditions: for h (best-fit, 1c/1d) / Bmax (best-fit, 1c/1d): MST WT; for Bmax (best-fit, 1c/1d): fit ambiguous; for binding by MST: native (WT) TrkB
T2 construct: expressed in transfected cells; host or cells: HEK293T
Experimental: as §1

[1] = target: T3, WT:Y433F heterodimers (Y433F^+/−) (Rattus norvegicus, UniProt Q63604, Y433F); assay: Split-luciferase PCA of TrkB dimerization in N2a cells; assay type: cell-based; conditions: for TrkB dimerization: WT:Y433F heterodimers; for TrkB dimerization (PCA), group mean (vehicle = 100): Y433F+/-; for TrkB dimerization time course, group mean (time 0 = 100): TRKB.Y433F
T3 construct: expressed in transfected cells; host or cells: N2a
Method in brief: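 N2a cells transiently co-transfected with split hGLuc-tagged rat TrkB pairs (WT/WT or Y433F/WT) for dimerization; Ketanserin, M100907 or TRKB.FC added 10 min before treatment. Luminescence read after injection of native coelenterazine ([…] final).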

TrkB(WT):Fyn = target: T4, TrkB(WT):Fyn (Rattus norvegicus, UniProt Q63604); assay: PCA of TrkB interaction with lipid raft Fyn in N2a cells; assay type: cell-based
T4 construct: expressed in transfected cells; host or cells: N2a
Experimental: (§2) Ketanserin, M100907 and TRKB.FC were added to the media 10 min before treatment. The PCA method was performed as previously described[11],[75],[76]. Split humanized Gaussia princeps luciferase (hGLuc) was cloned on the C-terminus of the reporter proteins TrkB (WT and Y433F) and lipid raft Fyn. If the reporter proteins that carry complementary halves of the luciferase interact, the enzyme can refold in its functional conformation and, upon addition of its substrate, produce luminescence proportionally to the amount of reporter proteins interacting at a given time. N2a cells were seeded in 96-well plates with opaque walls and transparent bottom (PerkinElmer, ViewPlate 96). Cells were transfected with Lipofectamine 2000 according to the manufacturer’s instructions 24 h post-plating with the PCA pair plasmids: phGLuc(1C)-TrkB(WT) or the mutant phGLuc(1C)-TrkB(Y433F) and phGLuc(2 C)-TrkB(WT) for the dimerization experiments; phGLuc(1C)-lipid raft Fyn and phGLuc(2C)-TrkB(WT) or phGLuc(2C)-TrkB(Y433F) for the lipid raft localization experiments. Forty-eight hours post transfection, cells were treated (40 min, 37 °C) in phenol red-free Dulbecco’s modified Eagle medium without serum. […] The PCA signal was detected with the substrate for the luciferase, native coelenterazine, which was injected into each well directly in the plate reader at a final concentration of […]. One data point was excluded from Fig. 4b by applying Grubb’s method for outlier detection test, which detected it as a significant outlier.

TrkB(Y433F):Fyn = target: T5, TrkB(Y433F):Fyn (Rattus norvegicus, UniProt Q63604, Y433F); assay: as above; assay type: cell-based; conditions: Y433F^+/− dimers
T5 construct: expressed in transfected cells; host or cells: N2a
Experimental: as §2

mice = assay: Repeated forced swimming test (rFST); assay type: in vivo, mouse
Experimental: rFST was conducted in WT and Y433F^+/− mice as described in literature[33],[92] with minor modifications. Briefly, female and male adult mice were exposed to five consecutive pretest sessions (5 min of duration, 24 h apart). […] The animals were submitted to a 5 min test session 7 days after the drug administration. The apparatus consisted of 5 l glass beaker cylinders (19 cm diameter, 20 cm water column at 23 ± 2 °C). The water was changed between each trial, for each animal. After each session, the animals were dried and kept in a warmed cage before returning to their home cages. The pretest and test sessions were recorded and analyzed by a trained observer blind to treatment and genotype.

[2] = 7 d, saline minus LSD, Bonferroni's multiple comparisons test

T2 sequence (Q63604 32-821): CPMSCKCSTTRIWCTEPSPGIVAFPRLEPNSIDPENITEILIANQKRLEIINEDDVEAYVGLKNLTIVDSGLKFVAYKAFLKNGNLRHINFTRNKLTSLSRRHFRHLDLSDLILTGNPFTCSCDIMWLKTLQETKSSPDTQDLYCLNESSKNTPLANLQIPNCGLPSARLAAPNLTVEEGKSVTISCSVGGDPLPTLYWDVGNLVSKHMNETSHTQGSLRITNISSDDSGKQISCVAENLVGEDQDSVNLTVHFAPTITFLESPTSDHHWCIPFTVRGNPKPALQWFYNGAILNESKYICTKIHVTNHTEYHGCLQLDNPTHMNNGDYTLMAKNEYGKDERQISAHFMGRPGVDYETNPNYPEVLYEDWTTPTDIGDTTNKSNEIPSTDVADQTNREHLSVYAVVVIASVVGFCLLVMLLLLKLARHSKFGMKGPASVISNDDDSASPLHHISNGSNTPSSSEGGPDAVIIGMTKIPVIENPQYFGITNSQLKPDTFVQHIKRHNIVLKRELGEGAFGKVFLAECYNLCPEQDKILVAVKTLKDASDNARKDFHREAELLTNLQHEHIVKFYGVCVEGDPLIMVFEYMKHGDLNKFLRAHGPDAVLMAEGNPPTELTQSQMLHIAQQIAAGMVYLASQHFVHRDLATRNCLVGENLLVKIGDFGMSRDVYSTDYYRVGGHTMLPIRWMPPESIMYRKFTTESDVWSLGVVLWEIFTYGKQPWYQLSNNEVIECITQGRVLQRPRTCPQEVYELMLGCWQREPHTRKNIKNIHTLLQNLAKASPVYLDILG
T3 sequence (Q63604 32-821 Y433F): as the sequence (Q63604 32-821) above, with Y402F counted along it
T3 sequence (Q63604 32-821, stated change not applied): as the sequence (Q63604 32-821) above
T1 sequence (Q63604 32-821 Y433F): as the sequence (Q63604 32-821) above, with Y402F counted along it
T4 sequence (Q63604 32-821): as the sequence (Q63604 32-821) above
T5 sequence (Q63604 32-821 Y433F): as the sequence (Q63604 32-821) above, with Y402F counted along it

CN(C)CCc1c[nH]c2cccc(O)c12 [PSI, psilocin]
Bmax (best-fit, 1c/1d) (GFP-tagged TrkA.TM): 151.3 | h (best-fit, 1c/1d) (GFP-tagged TrkA.TM): 1.115 | Bmax (best-fit, 1c/1d) (GFP-tagged TrkB Y433F): 49.04 | h (best-fit, 1c/1d) (GFP-tagged TrkB Y433F): 1.151 | binding by MST (GFP-tagged TrkB Y433F): but not to Y433F | h (best-fit, 1c/1d) (eGFP-tagged TrkB (WT)): 0.8209 | Bmax (best-fit, 1c/1d) (eGFP-tagged TrkB (WT)): ~ 268422 | binding by MST (eGFP-tagged TrkB (WT)): directly bind to native TrkB | TrkB dimerization [1]: this effect is abolished | TrkB dimerization (PCA), group mean (vehicle = 100) ([1]; 1nM): 110.2 | TrkB dimerization (PCA), group mean (vehicle = 100) ([1]; 10nM): 90.04 | TrkB dimerization (PCA), group mean (vehicle = 100) ([1]; 100nM): 84.39 | TrkB dimerization (PCA), group mean (vehicle = 100) ([1]; 1uM): 73.58 | TrkB interaction with Fyn (TrkB(WT):Fyn): increase TrkB interaction with lipid raft-restricted Fyn | TrkB interaction with Fyn (TrkB(Y433F):Fyn): this effect is lost

CCN(CC)C(=O)C1C=C2c3cccc4[nH]cc(c34)CC2N(C)C1 (centres unmarked) [LSD, lysergic acid diethylamide]
Bmax (best-fit, 1c/1d) (GFP-tagged TrkA.TM): ~ 12873 | h (best-fit, 1c/1d) (GFP-tagged TrkA.TM): 1.641 | Bmax (best-fit, 1c/1d) (GFP-tagged TrkB Y433F): ~ 430.4 | h (best-fit, 1c/1d) (GFP-tagged TrkB Y433F): 1.157 | binding by MST (GFP-tagged TrkB Y433F): but not to Y433F | h (best-fit, 1c/1d) (eGFP-tagged TrkB (WT)): 0.8476 | Bmax (best-fit, 1c/1d) (eGFP-tagged TrkB (WT)): ~ 566372 | binding by MST (eGFP-tagged TrkB (WT)): directly bind to native TrkB | TrkB dimerization time course, group mean (time 0 = 100) ([1]; time 15): 129.4 | TrkB dimerization time course, group mean (time 0 = 100) ([1]; time 60): 136.7 | TrkB dimerization time course, group mean (time 0 = 100) ([1]; time 120): 108.3 | TrkB dimerization time course, group mean (time 0 = 100) ([1]; time 240): 108.9 | TrkB dimerization time course, group mean (time 0 = 100) ([1]; time 480): 60.33 | TrkB dimerization [1]: this effect is abolished | TrkB dimerization (PCA), group mean (vehicle = 100) ([1]; 1nM): 113.3 | TrkB dimerization (PCA), group mean (vehicle = 100) ([1]; 10nM): 121 | TrkB dimerization (PCA), group mean (vehicle = 100) ([1]; 100nM): 118.1 | TrkB dimerization (PCA), group mean (vehicle = 100) ([1]; 1uM): 109.7 | TrkB interaction with Fyn (TrkB(WT):Fyn): increase TrkB interaction with lipid raft-restricted Fyn | TrkB interaction with Fyn (TrkB(Y433F):Fyn): this effect is lost | Mean, figure 7g (repeated forced swimming test) (mice; 7 d, pretest = 100): 81.36 | Mean Diff., figure 7f, WT+SAL vs. WT+LSD (mice; [2]): 34.99 | Mean Diff., figure 7f, Y433F+/-+SAL vs. Y433F+/-+LSD (mice; [2]): 7.08 | Mean Diff. vs. Vehicle, figure 7g (mice; 7 d, vehicle minus treated, Bonferroni's multiple comparisons test): 13.93 | antidepressant-like effect in rFST (mice; WT mice, 7 days after single administration): sustained antidepressant-like effect | Mean, figure 7f (repeated forced swimming test) (mice; WT+LSD, 7 d, pretest = 100): 60.98 | Mean, figure 7f (repeated forced swimming test) (mice; Y433F+/-+LSD, 7 d, pretest = 100): 93.99 | antidepressant-like effect in rFST (mice; Y433F^+/− mice): not Y433F^+/− mice

COc1cccc([C@H](O)C2CCN(CCc3ccc(F)cc3)CC2)c1OC [M100907]
effect of pretreatment on antidepressant-like effect of LSD in rFST (mice; M100907 0.5 mg kg^−1): did not prevent the antidepressant-like effect of LSD
